ChEMBL document CHEMBL1158648, “The Lignans of Polygala polygama (Polygalaceae): Deoxypodophyllotoxin and Three New Lignan Lactones” (1979)

Tested on: P388
Test: In vivo antitumor activity against mouse P388 cells at 40 mg/kg
Assay type: functional

Row | Compound | T/C
1 | COc1cc([C@@H]2c3cc4c(cc3[C@H](O)[C@H]3COC(=O)[C@H]23)OCO4)cc(OC)c1O | 144%
2 | COc1ccc2c(c1OC)[C@@H](c1ccc3c(c1)OCO3)C1=C(COC1=O)C2 | 144%
3 | COc1cc([C@@H]2c3cc4c(cc3C[C@H]3COC(=O)[C@@H]32)OCO4)cc(OC)c1OC [DESOXYPODOPHYLLOTOXIN] | 144%
4 | COc1cc([C@@H]2c3cc4c(cc3[C@H](O)[C@H]3COC(=O)[C@H]23)OCO4)cc(OC)c1OC [PODOFILOX] | 144%
5 | O=C1OC[C@@H]2Cc3cc4c(cc3[C@@H](c3ccc5c(c3)OCO5)[C@@H]12)OCO4 [POLYGAMAIN] | 144%
6 | COc1ccc2c(c1OC)[C@@H](c1ccc3c(c1)OCO3)[C@H]1C(=O)OC[C@@H]1C2 [POLYGAMATIN] | 144%
